Test results: patent US6703376B2, “Use of uridine triphosphates and related compounds for the prevention and treatment of pneumonia in immobilized patients” (Inspire Pharmaceuticals, Inc., priority 1996, dated 2004)
Read-outs that look alike come from different tables or passages of the source.

Legend:
[1] = test system: cultured human epithelial cells; settings: cells from normal adult humans and CF patients; cited from earlier work
[2] = test system: goblet cells in human airway epithelial explants; settings: tissues from healthy individuals and patients with CF; cited from earlier work
[3] = test system: anesthetized and ventilated dogs; settings: cited from earlier work
[4] = test system: human nasal epithelial cells; settings: cited from earlier work
conscious adult ewes = assay: Trachael mucus velocity (TMV) study, fluoroscopy of radiopaque disks; type: in vivo, sheep; settings: for maximal effect on tracheal mucus velocity: 400 μmole (4 ml of 10^−1M) nebulized, mean±standard error, n=6, 15 min after administration; for effect on tracheal mucus velocity: doses 4 to 400 μmole; for effect on tracheal mucus velocity / duration of significant effects on TMV after administration / time of maximal effect on TMV after administration: nebulized; for duration of significant effects on TMV after administration: highest dose (400 μmole); for time of maximal effect on TMV after administration: adult ewes
Text: The effects of UTP and U2P4 on trachael mucus velocity (TMV) were studied using the following procedures: The nasal passages of conscious adult ewes were anesthetized with a 2% lidocaine solution. After local anesthesia was produced, a modified endotracheal tube 7.5 mm was placed such that the cuff was just below the vocal cords (verified by fluoroscopy). Inspired air was warmed and humidified. The cuff of the endotracheal tube was inflated only during administation of the test compound to minimize possible impairment of TMV by the cuff. Test compounds were administered by nebulization in a volume of 4 mL over a period of 10-12 min. TMV was measured by fluroscopy. Ten to twenty radiopaque disks (Teflon®/bismuth trioxide; 1 mm diameter, 0.8 mm thick, weighing 1.8 mg) were introduced into the trachea through a modified suction catheter with a puff of compressed air (3-4 L/min). Velocities of the individual disks were recorded on videotape from a portable image intensifier unit. Individual disk velocities were calculated by measuring the distance traveled by each disk during a 1 min observation period. Values reported are the means of the individual disk velocities. A collar was worn by the sheep which was used as a standard to correct for magnification errors inherent in the fluoroscope.

normal volunteers = settings: acute; cited from earlier work
healthy adult ewes = assay: Mucociliary clearance study, 99mTc-HSA clearance by gamma camera; type: in vivo, sheep; settings: 400 μmole nebulized; initial results n=2; compared to saline control
Experimental: In this study healthy adult ewes were given 99 mTc-labeled human serum albumin (99 mTc-HSA) via a nebulized aerosol. The 99 mTC-HSA (20 mCi) was administered over 5 min through a nasotracheal tube introduced under local anesthesia with 2% lidocaine. After administration of the 99 mTc-HSA, the animals were given a test compound: either UTP or U2P4. Test compounds were administered by nebulization in a volume of 4 mL over a period of 10-12 min. The test compounds were given at a dose of 400 μmole. After the administration of the test compound, the animals were extubated. Clearance of the radiolabeled particles was monitored with a gamma camera. Measurements were made at 0, 5, 10, 15, 20, 25, 30, 35, 40, 45, 50, 55, 60, […], 90, 105 and 120 min.

O=c1ccn([C@@H]2O[C@H](COP(=O)(O)OP(=O)(O)OP(=O)(O)O)[C@@H](O)[C@H]2O)c(=O)[nH]1 [UTP, uridine 5′-triphosphate]
cilia beat frequency [1]: increase in cilia beat frequency
mucin secretion by goblet cells [2]: increase the rate and total amount of mucin secretion
effects on peak inspiratory airway pressure, mean pulmonary artery pressure, heart rate, cardiac output, thoracic aortic pressure, electrocardiogram, arterial blood gases ([3]; aerosol, 10^−2 M and 10^−1 M in nebulizer): no significant effects
changes in mean pulmonary artery pressure, heart rate, cardiac output, mean arterial pressure ([3]; intravenous, sequential doses 0.1, 1, 3 and 5 mmoles/kg infused over 10 minutes): no significant changes
Cl- secretion ([4]; cultured nasal epithelial cells from cystic fibrosis (CF) patients): This response was also observed
Cl- secretion ([4]; normal human nasal epithelial cells, apical application): increased Cl- secretion in a concentration-dependent manner
maximal effect on tracheal mucus velocity (conscious adult ewes): 125±7 % of baseline
effect on tracheal mucus velocity (conscious adult ewes): significant dose-related effects
duration of significant effects on TMV after administration (conscious adult ewes): up to 4 h
time of maximal effect on TMV after administration (conscious adult ewes): 15 min
improvement of mucociliary clearance (MCC) (normal volunteers): 2.5 fold
clearance of radiolabeled particles (99mTc-HSA) (healthy adult ewes): promote clearance of the radiolabeled particles

O=c1ccn([C@@H]2O[C@H](COP(=O)(O)OP(=O)(O)OP(=O)(O)OP(=O)(O)OC[C@H]3O[C@@H](n4ccc(=O)[nH]c4=O)[C@H](O)[C@@H]3O)[C@@H](O)[C@H]2O)c(=O)[nH]1 [U2P4, P1,P4-di(uridine-5′)tetraphosphate]
maximal effect on tracheal mucus velocity (conscious adult ewes): 144±9 % of baseline
effect on tracheal mucus velocity (conscious adult ewes): significant dose-related effects
duration of significant effects on TMV after administration (conscious adult ewes): ≤ 2 h
time of maximal effect on TMV after administration (conscious adult ewes): 15 min
clearance of radiolabeled particles (99mTc-HSA) (healthy adult ewes): promote clearance of the radiolabeled particles
